Measured values as given in patent US20170065670A1, “METHODS FOR TREATING IMMUNE MEDIATED NEUROLOGICAL DISEASES” (Trinity Therapeutics, Inc., priority 2005, published 2017).
Blank lines part the entries; values can stand above or below the molecule they belong to.

Experiments:
[1] = tested on: human wt β amyloid peptide 1-40; experiment: Reverse ELISA: inhibition of immune complexed IgG (PAP) binding to wt β-amyloid peptide 1-40; conditions: summary of Table 7
Text: (§1) For this reason, a “reverse ELISA” technique was used to assess binding of the Fc region to ligands that bind to immune complexed IgG Fc. In these assays, the enzyme (HRP) was not covalently conjugated to the Fc portion of the secondary antibody. Rather, a preformed immune complex of peroxidase-rabbit (or mouse) anti-peroxidase IgG (“PAP” complex) was used. […] In the reverse ELISA system, an Fc CH2-CH3 cleft binding ligand (e.g., purified human C1q) was bound to microwell plates. In the absence of competitor, PAP complexes bound to the immobilized ligand and the reaction between HRP and its substrate produced a signal. This signal was reduced by polypeptides and compounds, such as those provided herein, that inhibited PAP binding to the immobilized ligand.
Different fragments of the Aβ peptide contribute to the amyloid plaques pathognomic for AD, and these Aβ fragments appear to stimulate microglial activation and subsequent AD neuropathology. Thus, experiments were conducted to test Aβ 1-40 for binding to immune complexes, and to determine whether the inhibitors described herein can inhibit binding of PAP immune complexes to Aβ peptide. PAP complexes were prepared by mixing 2 μl of rabbit anti-peroxidase with 50 μl of peroxidase in 1 ml distilled water. […] After washing, plates were incubated with ATBS for 15 minutes and read at 405 nm.

[2] = tested on: human wtSOD1; experiment: Reverse ELISA: inhibition of immune complexed IgG (PAP) binding to wt SOD1; conditions: for wt SOD1 (read at 405 nm): plates coated 24 h with 0.8 μg/ml human wtSOD1, PAP/peptide 60 min, lower = more inhibition, positive control 2.900; for inhibition of wt SOD1 binding to PAP (in words): summary of Table 3
Text: as §1
(§2) PAP complexes were formed as described in Example 2. PAP (100 μl) were pre-incubated with 100 μl of peptide for one hour, and control (200 μl of PAP) also was incubated for one hour. 100 μl of either PAP or PAP/peptide was added to Falcon microtiter plates that had been coated for 24 hours with either 0.8 μg/ml human wtSOD1 (Sigma-Aldrich) or apo (non Cu, Zn containing) monomeric mutant SOD1 C57S (mSOD1C57S). The PAP or peptide/PAP mixtures (100 μl) were added after one hour to either wt SOD1 or mSOD1C57S coated plates for 60 minutes. After washing, plates were incubated with ATBS for 15 minutes and read at 405 nm.

[3] = tested on: apo (non Cu, Zn containing) monomeric mutant SOD1 C57S (mSOD1C57S); experiment: Reverse ELISA: inhibition of immune complexed IgG (PAP) binding to mutant SOD1; conditions: for mSOD1C57S (read at 405 nm): plates coated 24 h with mSOD1C57S, PAP/peptide 60 min, lower = more inhibition, positive control […]; for inhibition of mSOD1C57S binding to PAP (in words): summary of Table 3
Text: as §1, §2

[4] = molecular target: Human wt α-synuclein (Sigma-Aldrich) (human) (UniProt P37840); experiment: reverse ELISA: PAP without peptide on α-synuclein-coated plate (24 h coating)
[5] = molecular target: Highly purified FcγIIa (UniProt P12318); experiment: reverse ELISA: PAP without peptide on FcγIIa-coated plate
[6] = tested on: human wt α-synuclein; experiment: Reverse ELISA: inhibition of immune complexed IgG (PAP) binding to wt α-synuclein
Text: as §1
PAP complexes were formed mixing 2 μl of rabbit anti-peroxidase (Sigma) with 50 μl of peroxidase (Sigma) in 1 ml distilled water. PAP (100 μl) were pre-incubated with 100 μl of peptide for one hour. Control PAP (200 μl) also was incubated for one hour. 100 μl of either PAP or PAP/peptide was added to Falcon microtiter plates that had been coated for 24 or 48 hours with 167 μg/ml human wt α-synuclein (Sigma-Aldrich), and the plates were incubated for 60 minutes. After washing, plates were incubated with ATBS for 30 minutes and then read at 405 nm.

[7] = tested on: human C1q; experiment: Reverse ELISA: inhibition of PAP immune complex binding to C1q coated plates; conditions: summary of Table 1
Text: as §1
PAP complexes were formed by mixing 2 μl of rabbit anti-peroxidase (Sigma Chemicals, St. Louis, Mo.) with 50 μl of peroxidase (Sigma-Aldrich, St. Louis, Mo.) in 1 ml distilled water. PAP (100 μl) were pre-incubated with 100 μl of peptide or human C1q (Quidel Corp., San Diego, Calif.) for one hour. The C1q/PAP and peptide/PAP mixtures (100 μl) were then incubated with C1q coated plates for 30 minutes. After washing, plates were incubated with 2-2′-azinobis-3-ethylbenzthiazoline-6-sulfonate (ATBS; Quidel Corp.) for 15 minutes and read at 405 nm.

[8] = tested on: FcγIIa; experiment: Reverse ELISA: inhibition of PAP immune complex binding to FcγIIa coated plates; conditions: summary of Table 2, FcR overall (FcγIIa, FcγIIb, FcγIII)
Text: as §1
Once the reverse ELISA protocol was established using the C1q assay, the assay was redesigned using FcγIIa, FcγIIb and FcγIII in place of C1q. Highly purified FcγIIa, FcγIIb and FcγIII were immunoadsorbed onto plastic microwells. […]
Falcon microtiter plates were coated with 1:10 dilutions of highly purified FcγIIa, FcγIIb and FcγIII and incubated for 24 hours. […] After washing, plates were incubated with ABTS substrate for 15 minutes and read at 405 nm.

[9] = tested on: human wt tau protein (441 residues); experiment: Reverse ELISA: inhibition of immune complexed IgG (PAP) binding to wt tau
Text: as §1
PAP complexes were formed by mixing 2 μl of rabbit anti-peroxidase with 50 μl of peroxidase in 1 ml distilled water. PAP (100 μl) were pre-incubated with 100 μl of peptide for one hour. Control PAP (200 μl) also was incubated for one hour. 100 μl of either PAP or PAP/peptide was added to Falcon microtiter plates that had been coated for 24 hours with 16.7 μg/ml human wt tau protein (441 residues; Sigma-Aldrich). The PAP or peptide/PAP mixtures (100 μl) were added after one hour to tau coated plates and incubated for 60 minutes. After washing, plates were incubated with ATBS for 15 minutes, and read at 405 nm.

[10] = molecular target: Preformed immune complex of peroxidase-rabbit anti-peroxidase IgG (PAP complex) (horseradish) (UniProt P00433); experiment: reverse ELISA competition: peptide pre-incubated with PAP; competitor: immobilised human wt α-synuclein, plate coated 24 h
[11] = molecular target: Preformed immune complex of peroxidase-rabbit anti-peroxidase IgG (PAP complex) (horseradish) (UniProt P00433); experiment: reverse ELISA competition: peptide pre-incubated with PAP; competitor: immobilised human wt α-synuclein, plate coated 48 h
[12] = molecular target: Preformed immune complex of peroxidase-rabbit anti-peroxidase IgG (PAP complex) (horseradish) (UniProt P00433); experiment: reverse ELISA competition: peptide pre-incubated with PAP; competitor: immobilised human wt SOD1
[13] = molecular target: Preformed immune complex of peroxidase-rabbit anti-peroxidase IgG (PAP complex) (horseradish) (UniProt P00433); experiment: reverse ELISA competition: peptide pre-incubated with PAP; competitor: immobilised mSOD1C57S

Sequence of Preformed immune complex of peroxidase-rabbit anti-peroxidase IgG (PAP complex) (horseradish) (P00433 31-338, one chain of several): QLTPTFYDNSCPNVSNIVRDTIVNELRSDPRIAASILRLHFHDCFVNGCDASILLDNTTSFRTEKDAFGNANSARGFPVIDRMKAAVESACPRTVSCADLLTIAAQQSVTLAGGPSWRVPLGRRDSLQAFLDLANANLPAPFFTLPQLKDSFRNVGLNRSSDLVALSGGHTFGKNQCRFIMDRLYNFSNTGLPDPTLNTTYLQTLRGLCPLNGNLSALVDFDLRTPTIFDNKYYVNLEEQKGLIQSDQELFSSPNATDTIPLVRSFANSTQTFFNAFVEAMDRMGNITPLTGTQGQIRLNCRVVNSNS
Sequence of Preformed immune complex of peroxidase-rabbit anti-peroxidase IgG (PAP complex) (P00433 31-338, one chain of several): as above
Sequence of Highly purified FcγIIa (P12318 34-217 limits assumed): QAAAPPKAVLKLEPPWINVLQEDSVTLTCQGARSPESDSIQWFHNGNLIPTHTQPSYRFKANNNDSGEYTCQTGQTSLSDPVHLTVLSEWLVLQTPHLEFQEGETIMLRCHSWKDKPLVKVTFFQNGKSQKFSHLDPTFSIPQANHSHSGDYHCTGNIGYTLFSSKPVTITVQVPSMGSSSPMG

Molecule: DCAWHLGELVWCT
- inhibition of human wt β amyloid peptide binding to PAP (rank in words) [1]: greatest inhibition
- wt SOD1 (read at 405 nm) [2]: 0.292
- inhibition of wt SOD1 binding to PAP (in words) ([2]; listed as peptide 2): inhibited
- mSOD1C57S (read at 405 nm) [3]: 0.592
- inhibition of mSOD1C57S binding to PAP (in words) ([3]; listed as peptide 2): inhibited

- OD 405 nm [4]: 1.43 OD
- OD 405 nm [5]: 1.6 OD
Molecule: Preformed immune complex of peroxidase-rabbit anti-peroxidase IgG (PAP complex) (from UniProt P00433 31-338)

Molecule: APPDCAWHLGELVWCT
- Wt α-synuclein (read at 405 nm) ([6]; plates coated 24 h with 167 μg/ml α-synuclein, lower = more inhibition, positive control 1.433, substrate only 0.061): 0.088
- inhibition of α-synuclein binding to PAP (rank in words) ([6]; summary of Table 5): greatest inhibition
- inhibition of C1q binding (rank in words) [7]: greatest inhibition
- wt SOD1 (read at 405 nm) [2]: 0.277
- inhibition of wt SOD1 binding to PAP (in words) [2]: greatest inhibition
- inhibition of wt SOD1 binding to PAP (in words) ([2]; listed as peptide 16): best inhibition
- inhibition of FcR binding to PAP (rank in words) [8]: greatest inhibition
- mSOD1C57S (read at 405 nm) [3]: 0.226
- inhibition of mSOD1C57S binding to PAP (in words) [3]: greatest inhibition
- inhibition of mSOD1C57S binding to PAP (in words) ([3]; listed as peptide 16): best inhibition
- Wt tau protein (read at 405 nm) ([9]; plates coated 24 h with 16.7 μg/ml tau, lower = more inhibition, positive control 0.695, substrate only 0.060): 0.059
- inhibition of human wt tau protein binding to PAP (rank in words) ([9]; summary of Table 6): greatest inhibition

Molecule: APPCARHLGELVWCT
- inhibition of C1q binding (rank in words) [7]: next best result

- OD 405 nm [10]: 0.088 OD
- OD 405 nm [11]: 0.136 OD
- OD 405 nm [12]: 0.277 OD
- OD 405 nm [13]: 0.226 OD
Molecule: APPDCAWHLGELVWCT [Peptide … (SEQ ID NO:16)]
